For 50 compounds, IC50 results are on record in patent publication US20260217652A1, “PHENYL-SUBSTITUTED HETEROARYL COMPOUND AND PHARMACEUTICAL COMPOSITION COMPRISING SAME, PREPARATION METHOD THEREFOR AND USE THEREOF” (SHANGHAI MEIYUE BIOTECH DEVELOPMENT CO., LTD., priority 2023, published 2026).

The target of the test is T1, p38 MAPK/MK2 (Homo sapiens, UniProt Q16539).
T1 construct: purchased Carna (p38α); Abcam (MK2) 04-152; 79910
T1 sequence (Q16539 whole entry): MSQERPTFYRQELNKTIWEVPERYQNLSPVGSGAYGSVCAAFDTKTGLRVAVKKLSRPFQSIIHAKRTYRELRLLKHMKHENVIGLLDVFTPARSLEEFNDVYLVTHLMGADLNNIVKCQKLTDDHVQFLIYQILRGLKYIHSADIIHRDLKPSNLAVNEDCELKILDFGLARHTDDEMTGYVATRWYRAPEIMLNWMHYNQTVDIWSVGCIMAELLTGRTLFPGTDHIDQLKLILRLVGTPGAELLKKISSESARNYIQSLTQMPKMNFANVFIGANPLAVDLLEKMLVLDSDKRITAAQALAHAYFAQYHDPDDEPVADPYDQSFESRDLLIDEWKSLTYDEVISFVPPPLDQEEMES
T1 sequence (P49137 whole entry partner): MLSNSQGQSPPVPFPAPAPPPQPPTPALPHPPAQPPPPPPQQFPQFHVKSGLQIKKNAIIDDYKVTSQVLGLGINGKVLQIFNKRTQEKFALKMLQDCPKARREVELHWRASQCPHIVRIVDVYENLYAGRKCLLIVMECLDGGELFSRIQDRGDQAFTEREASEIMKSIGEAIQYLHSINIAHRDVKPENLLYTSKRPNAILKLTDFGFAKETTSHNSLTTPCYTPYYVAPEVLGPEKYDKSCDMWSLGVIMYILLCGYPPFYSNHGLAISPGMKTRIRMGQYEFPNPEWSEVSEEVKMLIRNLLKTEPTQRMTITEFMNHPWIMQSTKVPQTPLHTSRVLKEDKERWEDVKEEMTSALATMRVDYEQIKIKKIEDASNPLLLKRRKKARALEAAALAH
Briefly: In vitro activity assay of p38 MAPK/MK2 (Z-LYTE kinase assay kit). It counts as biochemical. The note with it: active p38α, inactive MK2, Ser/Thr 4; 1-hour reaction at 20° C. How it is done: The inhibitory effect of the compound on p38 MAPK/MK2 was evaluated using the Z-LYTE kinase assay kit (Thermo, PV3177). The test compound was dissolved in DMSO to obtain a 10 mM stock solution and stored at −20° C. for future use. The initial concentration of the compound was […], with 1% DMSO, 5-fold serial dilution, 8 concentrations, and duplicate wells. […] After a 1-hour reaction at 20° C., Development Reagent A diluted 2048-fold was added to each well, followed by incubation at room temperature for 1 hour. The reaction was terminated by adding 5 μL of stop buffer, and the plate was read using a microplate reader (Ex. 400 nm, Em. 445 nm; Ex. 400 nm, Em. 520 nm). The concentration-effect curve was fitted using GraphPad Prism 8 software, and the compound concentration resulting in 50% inhibition, IC50, was calculated.
On to `Cc1cnc(-c2ccc(Cl)c([C@@](C)(O)CO)c2)c(F)c1-n1c(C)cc(OCc2ncc(F)cc2F)c(Cl)c1=O` [Compound 53-2], for which the IC50 – broadly, the concentration that gives 50% inhibition – came out at 3.02 nM.
Take `CNC(=O)C(C)(O)c1cccc(-c2cc(-n3c(C)cc(OCc4ncc(F)cc4F)c(Cl)c3=O)c(C)cn2)c1F` (single isomer, unassigned) [Compound 121-P1]: it took 6.81 nM to reach half-maximal inhibition (IC50).
The result for `CNC(=O)C(C)(O)c1c(F)ccc(-c2cc(-n3c(C)cc(OCc4ncc(F)cc4F)c(Cl)c3=O)c(C)cn2)c1F` (single isomer, unassigned) [Compound 116-P2] reads 2.26 nM.
As for `Cc1cc(OCc2ncc(F)cc2F)c(Cl)c(=O)n1-c1ccnc(-c2cccc(C3(CO)CC3)c2F)c1` [Compound 156], the concentration for half-maximal inhibition (IC50) is 0.336 nM.
The result for `Cc1cnc(-c2cccc(C3(O)CC3)c2F)cc1-n1c(C)cc(OCc2ncc(F)cc2F)c(Cl)c1=O` [Compound 135] reads 13 nM; that for `Cc1cnc(-c2cccc(C(=O)NOCCO)c2)cc1-n1c(C)cc(OCc2ncc(F)cc2F)c(Cl)c1=O` [Compound 7], 87.5 nM; that for `Cc1cnc(-c2cccc([C@](C)(O)CO)c2Cl)c(F)c1-n1c(C)cc(OCc2ncc(F)cc2F)c(Cl)c1=O` [Compound 62-P1], 0.35 nM.
With `Cc1cnc(-c2cccc(C3(O)CC3)c2)c(F)c1-n1c(C)cc(OCc2ncc(F)cc2F)c(Cl)c1=O` [Compound 136], the IC50 is 26.2 nM. This IC50 lies about 75-fold higher than the previous one.
Then `CNC(=O)c1cc(-c2cc(-n3c(C)cc(OCc4ncc(F)cc4F)c(Cl)c3=O)c(C)cn2)ccc1F` [Compound 17], with 87.9 nM.
In turn, `Cc1cc(OCc2ncc(F)cc2F)c(Cl)c(=O)n1-c1ccnc(-c2ccc(F)c(C(C)(C)O)c2F)c1` [Compound 142] had a concentration for half-maximal inhibition (IC50) of 3.37 nM.
The result for `CNCC(C)(O)c1cc(-c2ncc(C)c(-n3c(C)cc(OCc4ncc(F)cc4F)c(Cl)c3=O)c2F)ccc1F` (centres unmarked) [Compound 139] reads 53 nM; that for `Cc1cnc(-c2cc(F)cc([C@@](C)(O)CO)c2F)cc1-n1c(C)cc(OCc2ncc(F)cc2F)c(Cl)c1=O` [Compound 110-P1], 0.7 nM.
Then `Cc1cnc(-c2ccc3c(c2F)C(C)(C)NC3=O)cc1-n1c(C)cc(OCc2ncc(F)cc2F)c(Cl)c1=O` [Compound 134], with 39.9 nM; and `Cc1cnc(-c2ccc(F)c([C@](C)(O)CO)c2F)cc1-n1c(C)cc(OCc2ncc(F)cc2F)c(Cl)c1=O` (single isomer, unassigned) [Compound 65-P2], with 0.4 nM; and `CNC(=O)C(C)(O)c1c(F)ccc(-c2cc(-n3c(C)cc(OCc4ncc(F)cc4F)c(Cl)c3=O)c(C)cn2)c1F` (single isomer, unassigned) [Compound 116-P4], with 0.14 nM.
In turn, `Cc1cnc(-c2cc([C@@](C)(O)CO)ccc2Cl)c(F)c1-n1c(C)cc(OCc2ncc(F)cc2F)c(Cl)c1=O` [Compound 107-P1] yielded an IC50 of 4.99 nM.
Then `Cc1cnc(-c2ccc(F)c(C(C)(O)C(N)=O)c2F)cc1-n1c(C)cc(OCc2ncc(F)cc2F)c(Cl)c1=O` (single isomer, unassigned) [Compound 125-P1], with 0.41 nM.
The result for `COc1cnc(-c2cccc(C(C)(C)O)c2F)cc1-n1c(C)cc(OCc2ncc(F)cc2F)c(Cl)c1=O` [Compound 155] reads 3.49 nM; that for `Cc1cnc(-c2ccc(F)c([C@@](C)(O)CO)c2)c(F)c1-n1c(C)cc(OCc2ncc(F)cc2F)c(Cl)c1=O` (single isomer, unassigned) [Compound 51-P1], 1.83 nM.
Then `Cc1cnc(-c2cccc([C@](C)(O)CO)c2F)cc1-n1c(C)cc(OCc2ncc(F)cc2F)c(Cl)c1=O` [Compound 35-P2], with 0.71 nM.
Compound `Cc1cnc(-c2ccc(F)c(C(C)(O)C(N)=O)c2F)cc1-n1c(C)cc(OCc2ncc(F)cc2F)c(Cl)c1=O` (single isomer, unassigned) [Compound 125-P3] gave an IC50 of 0.28 nM.
Then `Cc1cnc(-c2cccc(C(=O)N3CC(C)(O)C3)c2)cc1-n1c(C)cc(OCc2ncc(F)cc2F)c(Cl)c1=O` [Compound 10], with 60.5 nM; and `Cc1cc(OCc2ncc(F)cc2F)c(Cl)c(=O)n1-c1ccnc(-c2ccc(F)c([C@@](C)(O)CO)c2F)c1` [Compound 144], with 12.6 nM.
`Cc1cnc(-c2cccc(C(C)(O)CO)c2F)cc1-n1c(C)cc(OCc2ncc(F)cc2F)c(Cl)c1=O` (centres unmarked) [Compound 35]: the IC50 came to 2.39 nM.
As to `Cc1cnc(-c2cccc(C(C)(O)C(N)=O)c2F)cc1-n1c(C)cc(OCc2ncc(F)cc2F)c(Cl)c1=O` (single isomer, unassigned) [Compound 126-P1], the 50% inhibitory concentration (IC50) was 1.68 nM.
Then `CNCC(C)(O)c1cccc(-c2cc(-n3c(C)cc(OCc4ncc(F)cc4F)c(Cl)c3=O)c(C)cn2)c1F` (centres unmarked) [Compound 150], with 8.59 nM; and `Cc1cnc(-c2ccc(F)c([C@](C)(O)CO)c2F)cc1-n1c(C)cc(OCc2ncc(F)cc2F)c(Cl)c1=O` (single isomer, unassigned) [Compound 65-1], with 1.27 nM; and `Cc1cnc(-c2cccc([C@](C)(O)CO)c2Cl)cc1-n1c(C)cc(OCc2ncc(F)cc2F)c(Cl)c1=O` [Compound 37-1], with 4.66 nM.
The result for `Cc1cnc(-c2cccc(C(C)(O)C(N)=O)c2F)cc1-n1c(C)cc(OCc2ncc(F)cc2F)c(Cl)c1=O` (single isomer, unassigned) [Compound 126-P3] reads 0.28 nM.
`CNC(=O)C(C)(O)c1cccc(-c2cc(-n3c(C)cc(OCc4ncc(F)cc4F)c(Cl)c3=O)c(C)cn2)c1F` (single isomer, unassigned) [Compound 121-P2]: the IC50 amounted to 2.83 nM.
The result for `Cc1cnc(-c2ccc(F)c(C(C)(O)C(=O)O)c2)c(F)c1-n1c(C)cc(OCc2ncc(F)cc2F)c(Cl)c1=O` (centres unmarked) [Compound 138-1] reads 1.21 nM; that for `Cc1cnc(-c2ccc3c(c2)C(C)(O)C(=O)N3)c(F)c1-n1c(C)cc(OCc2ncc(F)cc2F)c(Cl)c1=O` (single isomer, unassigned) [Compound 115-P1], 0.14 nM.
With `Cc1cnc(-c2cccc(C(C)(C)O)c2O)cc1-n1c(C)cc(OCc2ncc(F)cc2F)c(Cl)c1=O` [Compound 102], the 50% inhibitory concentration (IC50) is 0.15 nM.
`COC[C@](C)(O)c1c(F)ccc(-c2cc(-n3c(C)cc(OCc4ncc(F)cc4F)c(Cl)c3=O)c(C)cn2)c1F` (atropisomer, axis not shown) [Compound 149] registered a half-maximal inhibitory concentration (IC50) of 2.25 nM.
Consider `Cc1cnc(-c2ccc(F)c([C@@](C)(O)CO)c2F)cc1-n1c(C)cc(OCc2ncc(F)cc2F)c(Cl)c1=O` (single isomer, unassigned) [Compound 65-2], for which the 50% inhibitory concentration (IC50) came to 1.86 nM. This IC50 and that of the compound before are within 1.5-fold of each other.
As for `Cc1cnc(-c2cccc([C@@](C)(O)CO)c2)cc1-n1c(C)cc(OCc2ncc(F)cc2F)c(Cl)c1=O` [Compound 87-P1], it took 8.54 nM to reach half-maximal inhibition (IC50).
The result for `Cc1cnc(-c2cccc([C@@](C)(O)CO)c2Cl)c(F)c1-n1c(C)cc(OCc2ncc(F)cc2F)c(Cl)c1=O` [Compound 62-P3] reads 0.058 nM; that for `COc1cnc(-c2cccc([C@@](C)(O)CO)c2F)cc1-n1c(C)cc(OCc2ncc(F)cc2F)c(Cl)c1=O` [Compound 154], 20.6 nM.
`Cc1cnc(-c2cc([C@@](C)(O)CO)ccc2F)c(F)c1-n1c(C)cc(OCc2ncc(F)cc2F)c(Cl)c1=O` [Compound 106-P1]: the IC50 stood at 7.73 nM.
Take `CC[C@](O)(CO)c1cccc(-c2cc(-n3c(C)cc(OCc4ncc(F)cc4F)c(Cl)c3=O)c(C)cn2)c1F` [Compound 147]: the 50% inhibitory concentration (IC50) is 7.94 nM. The IC50 values of the last two compounds are within 1.5-fold of each other.
The result for `Cc1cnc(-c2cc(F)cc([C@](C)(O)CO)c2F)cc1-n1c(C)cc(OCc2ncc(F)cc2F)c(Cl)c1=O` [Compound 110-1] reads 1.94 nM; that for `Cc1cnc(-c2cccc(C(=O)NO)c2)cc1-n1c(C)cc(OCc2ncc(F)cc2F)c(Cl)c1=O` [Compound 5], 90.3 nM; that for `Cc1ccc(-c2ncc(C)c(-n3c(C)cc(OCc4ncc(F)cc4F)c(Cl)c3=O)c2F)cc1[C@@](C)(O)CO` [Compound 52-P1], 0.12 nM.
Then `Cc1cnc(-c2cccc(C(C)(C)O)c2F)cc1-n1c(C)cc(OCc2ncc(F)cc2F)c(Cl)c1=O` [Compound 101], with 0.93 nM; and `Cc1cnc(-c2ccc(Cl)c([C@](C)(O)CO)c2)c(F)c1-n1c(C)cc(OCc2ncc(F)cc2F)c(Cl)c1=O` [Compound 53-1], with 1.2 nM; and `Cc1cnc(-c2ccc3c(c2)C(C)(C)NC3=O)c(F)c1-n1c(C)cc(OCc2ncc(F)cc2F)c(Cl)c1=O` [Compound 129], with 19.9 nM.
Then `Cc1cnc(-c2ccc3c(c2)C(C)(O)C(=O)N3)c(F)c1-n1c(C)cc(OCc2ncc(F)cc2F)c(Cl)c1=O` (single isomer, unassigned) [Compound 115-P2], with 0.7 nM; and `Cc1cc(OCc2ncc(F)cc2F)c(Cl)c(=O)n1-c1ccnc(-c2cccc([C@@](C)(O)CO)c2F)c1` [Compound 143], with 18.1 nM.
As for `Cc1cnc(-c2cccc(C(N)=O)c2F)cc1-n1c(C)cc(OCc2ncc(F)cc2F)c(Cl)c1=O` [Compound 21-P2], half-maximal inhibition (IC50) was put at 0.51 nM.
Then `COC[C@](C)(O)c1cccc(-c2cc(-n3c(C)cc(OCc4ncc(F)cc4F)c(Cl)c3=O)c(C)cn2)c1F` [Compound 148-P1], with 15.9 nM.
